# Test system: GUMC-403
# Test: viability at highest tested concentration (max response) relative to DMSO (% of DMSO control); higher = less cytotoxic
# Details: library / dose series: MIPE library, 11-point 1:3 dilution; top concentration 13.4 µM; 48 h
# Method in brief: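 Each figure stands for viability at the highest tested concentration compared with vehicle control. It was measured by CellTiter-Glo luminescence on a ViewLux after 48 h of exposure to 23 nL of pinned compound, with vehicle wells taken as 100% and empty wells as 0%. The cells were patient-derived GUMC-403 papilloma cells grown by conditional reprogramming, plated at 700/well in 5 μL F + Y medium in 1536-well plates.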
row,SMILES,viability
1,CN[C@H]1[C@H](O[C@@H]2[C@H](O[C@@H]3[C@@H](O)[C@@H](O)[C@@H](NC(=N)N)[C@@H](O)[C@H]3NC(=N)N)O[C@H](C)[C@@]2(O)C=O)O[C@@H](CO)[C@@H](O)[C@H]1O,114

# Same assay, conditions: library / dose series: MIPE library, 11-point 1:3 dilution; top concentration 23 µM; 48 h
row,SMILES,viability
1,Cn1cc(C[C@@H](N)C(=O)O)c2ccccc21,111
2,C[C@H]1CN(C[C@@H](C)N1)C2=C(F)C3=C(C(=C2F)N)C(=O)\C(=C/N3C4CC4)C(O)=O,133

# Same assay, conditions: library / dose series: MIPE library, 11-point 1:3 dilution; top concentration 46.1 µM; 48 h
row,SMILES,viability
1,OC(=O)C(CC/1=C/C(=O)NC2=CC=CC=C12)NC(=O)C3=CC=C(Cl)C=C3 (stereo not drawn),132
2,CCCCc1nc2cc(/C=C/C(=O)NO)ccc2n1CCN(CC)CC,67.2
3,CC1(C)S[C@H]2[C@H](NC(=O)[C@@H](N)C3=CC=C(O)C=C3)C(=O)[N@]2[C@H]1C(O)=O,124
4,Cn1cnc2c(F)c(Nc3ccc(Br)cc3F)c(C(=O)NOCCO)cc21,89.6
5,CC(=O)NC(CS)C(=O)O (stereo not drawn),91.1
6,COc1cc2c(Nc3ccc(NC(=O)c4ccccc4)cc3)ncnc2cc1OCCCN1CCOCC1,117
7,COC(=O)C1C2CC3c4[nH]c5cc(OC)ccc5c4CCN3CC2CC(OC(=O)c2cc(OC)c(OC)c(OC)c2)C1OC (stereo not drawn),101
8,C[C@](O)(COc1ccc(C#N)cc1)C(=O)Nc1ccc(C#N)c(C(F)(F)F)c1,93.8
9,O=C(c1ccc(Nc2nccc(-c3cc4ccccc4s3)n2)cc1)N1CCC(N2CCCC2)CC1,41
10,N#C[C@@H]1C[C@@H]2C[C@@H]2N1C(=O)[C@@H](N)C12CC3CC(CC(O)(C3)C1)C2,111
11,OCc1ccc(-c2nn(Cc3ccccc3)c3ccccc23)o1,94.3
12,C[C@@H]1CC[C@H]2[C@@H](C)C(=O)O[C@@H]3O[C@@]4(C)CC[C@@H]1[C@]32OO4,109
13,O=C(Nc1c(Cl)cncc1Cl)c1ccc(OC(F)F)c(OCC2CC2)c1,125
14,ClC1=C[NH]N=C1C\2NC(=N\C3=C2C(=O)CCC3)/NC4=NC5=CC=CC=C5O4 (stereo not drawn),124
15,CO[C@H]1CCC(O[C@H]2C[C@H]([C@]3(C)CC[C@]4(C[C@H](O)[C@@H](C)[C@@H]([C@@H](C)/C=C(\C)C(=O)[C@H](C)C[C@H](C)C(=O)[O-])O4)O3)O[C@]3(O[C@@H]([C@H]4O[C@@](O)(CO)[C@H](C)C[C@@H]4C)C[C@@H]3C)[C@@H]2C)O[C@@H]1C (stereo partly drawn),104
16,C[N]1C=C(C2=CC=CC=C12)\C3=C(\C(=O)NC3=O)C4=C[N](C5CCN(CC5)CC6=NC=CC=C6)C7=C4C=CC=C7,128
17,CC1(CN2CCC(n3c(=O)[nH]c4ccccc43)CC2)OCc2ccccc2-n2cccc21 (stereo not drawn),82.8
18,CC\1=C(C(=O)N(\C=C1)C2=CC=C(C=C2)C3=NC=CO3)/C4=CC5=CN=C(N)N=C5C=C4,79.7
19,Cc1ccc([C@@H]2O[C@H](CO)[C@@H](O)[C@H](O)[C@H]2O)cc1Cc1ccc(-c2ccc(F)cc2)s1,108
20,C/C1=C2/[N]3[Co+]456([OH])<-[N]7=C1[C@@H](CCC(N)=O)C(C)(C)/C7=C/C1=[N]->4C(=C(/C)C4=[N]->5[C@@](C)([C@H]3[C@H](CC(N)=O)[C@@]2(C)CCC(=O)NC[C@@H](C)OP(=O)([O-])O[C@H]2[C@@H](O)[C@@H](n3c[n]->6c5cc(C)c(C)cc53)O[C@@H]2CO)[C@@](C)(CC(N)=O)[C@@H]4CCC(N)=O)/[C@@](C)(CC(N)=O)[C@@H]1CCC(N)=O,91.2
21,CC(C)OC(=O)C(C(=O)OC(C)C)=C1S\C=C/S1,104
22,COc1cc(C(=O)N2CCC(N3CCN(C)CC3)CC2)ccc1Nc1ncc2c(n1)N(C)c1ccccc1C(=O)N2C,78.9
23,CN(C)C/C=C/C(=O)Nc1cc2c(Nc3ccc(F)c(Cl)c3)ncnc2cc1O[C@H]1CCOC1,41.7
24,CC(C)Nc1cc(C(F)(F)F)cc2nc(NC(=O)c3cccnc3)nn12,113

row,SMILES,viability
1,CCC(C)(Oc1ccc(C2(c3ccc(OC(C)(CC)C(=O)O)cc3)CCCCC2)cc1)C(=O)O (stereo not drawn),131
2,CCN(CC)CCCCNc1ncc2cc(-c3cc(OC)cc(OC)c3)c(NC(=O)NC(C)(C)C)nc2n1,128
3,CN(C)CCOc1ccc(-c2nc(-c3ccncc3)c(-c3ccc4c(c3)CC/C4=N\O)[nH]2)cc1,94.9
4,N#CCNC(=O)c1ccc(-c2ccnc(Nc3ccc(N4CCOCC4)cc3)n2)cc1,9.51
5,CC(=O)OCC(=O)[C@@]1(O)CC[C@H]2[C@@H]3CCC/4=C/C(=O)CC[C@]4(C)[C@H]3C(=O)C[C@]12C,119
6,CC[C@]12CC[C@H]3[C@@H](CCC/4=C/C(=O)CC[C@H]34)[C@@H]1\C=C/[C@@]2(O)C#C,130
7,C[C@@H]1CN(Cc2ccc(F)cc2)[C@@H](C)CN1C(=O)c1cc2c(C(=O)C(=O)N(C)C)cn(C)c2cc1Cl,101
8,CNc1nc(-c2ccc3c(N)n[nH]c3c2)cc(N2C[C@@H](C(=O)NC3CCCCC3)CC[C@H]2C)n1,87.8
9,COc1cc(F)c(F)c(Nc2ccc(I)cc2F)c1N[S+](=O)([O-])C1(C[C@H](O)CO)CC1,101
10,CC1(C)C(=O)N(CCN2CCC(C(=O)c3ccc(F)cc3)CC2)c2ccccc21,71.3
11,CCN(CC)CCOc1ccc(/C(=C(\Cl)c2ccccc2)c2ccccc2)cc1,114
12,CCCCCC[C@H]1C(=O)O[C@H](C)[C@H](NC(=O)c2cccc(NC=O)c2O)C(=O)O[C@@H](C)[C@@H]1OC(=O)CC(C)C,97.1
13,COC\1=C(/OC)C(=O)\C(=C(C)/C1=O)CCCCCCCCCCO,112
14,C[N+]1(C)[C@@H]2C[C@@H](OC(=O)[C@H](CO)c3ccccc3)C[C@H]1[C@@H]1O[C@@H]12.[Br-],120
15,C[C@]12C[C@H](O)[C@H]3[C@@H](CC\C4=C\C(=O)\C=C/[C@]34C)[C@@H]1CC[C@]2(O)C(=O)CO,118
16,CN1C(=O)\C(=C/C2=C1N=C(NC3CCOCC3)N=C2)OC4=C(F)C=C(F)C=C4,85.5
17,c1cc(N[C@@H]2CCNC2)nc(-c2cnc3ccc(-c4cn[nH]c4)cn23)c1,122
18,OC(Cn1cncn1)(Cn1cncn1)c1ccc(F)cc1F,130
19,CN(C(=O)c1ccc(F)cc1C(F)(F)F)C1CCN(c2nnc(-c3ccnn3C)c3ccccc23)CC1,78.1
20,CCN1\C=C(\C(O)=O)C(=O)C2=CC=C(C)N=C12,92
21,C[C@](O)(CS(=O)(=O)c1ccc(F)cc1)C(=O)Nc1ccc(C#N)c(C(F)(F)F)c1,128
22,NC1=NC(=O)N2CC12 (stereo not drawn),138
23,N=C1S/C(=C\c2ccc(-c3ccc4c(c3)C(=O)NC4=O)o2)C(=O)N1c1ccc(Br)cc1,142
24,OCc1ccc(-c2ccc(-c3ccc(CO)s3)o2)s1,117

row,SMILES,viability
1,CN(C)CC[C@H](CSc1ccccc1)Nc1ccc([S+](=O)([O-])NC(=O)c2ccc(N3CCN(Cc4ccccc4-c4ccc(Cl)cc4)CC3)cc2)cc1[N+](=O)[O-],114
2,Cc1ccc(O)c(C(CCN(C(C)C)C(C)C)c2ccccc2)c1.Cl (stereo not drawn),125
3,COCCNCCCn1c(C(=O)CF)c(-c2ccc(C)cc2)c2c(N)ncnc21,90.7
4,CC(C)(C(=O)NCC(F)(F)C(F)(F)F)C(=O)N[C@@H]1C(=O)Nc2ccccc2-c2ccccc21,88.8
5,CN1CCN(CC1)C2=CC3=C([NH]C(=N3)C/4=C(\N)C5=C(F)C=CC=C5NC4=O)C=C2,123
6,CCC(C)CCCCC(=O)N[C@@H](CCN)C(=O)NC(C(=O)N[C@H](CCN)C(=O)N[C@@H]1CCNC(=O)C([C@@H](C)O)NC(=O)[C@@H](CCN)NC(=O)[C@@H](CCN)NC(=O)[C@@H](CC(C)C)NC(=O)[C@H](Cc2ccccc2)NC(=O)[C@H](CCN)NC1=O)[C@@H](C)O (stereo partly drawn),126
7,CC(C)c1noc(N2CCC(COc3ccc(-c4ccc([S+](C)(=O)[O-])cc4)nc3)CC2)n1,91.9
8,CC1COC2=C3N1\C=C(C(O)=O)/C(=O)C3=CC(=C2N4CCN(C)CC4)F (stereo not drawn),105
9,O=C(c1ccc(OCCN2CCCCC2)cc1)c1c(-c2ccc(O)cc2)sc2cc(O)ccc12,94.4
10,Nc1ncnc2nc(-c3ccc(N4CCOCC4)nc3)cc(-c3cccc(Br)c3)c12,110
11,CO[C@H]1/C=C/O[C@@]2(C)Oc3c(C)c(O)c4c(O)c(c5c(nc6cc(C)ccn65)c4c3C2=O)NC(=O)/C(C)=C\C=C\[C@H](C)[C@H](O)[C@@H](C)[C@@H](O)[C@@H](C)[C@H](OC(C)=O)[C@@H]1C,133
12,COc1ccccc1OCC(O)CN1CCN(CC(=O)Nc2c(C)cccc2C)CC1 (stereo not drawn),130
13,CN(C)/[N+]([O-])=N/Oc1cc(ON[N+](=O)N2CCN(C(=O)c3cc(Cc4n[nH]c(=O)c5ccccc45)ccc3F)CC2)c([N+](=O)[O-])cc1[N+](=O)[O-],108
14,O=[S+]([O-])(O)c1ccc2cc(/N=N/c3cc([S+](=O)([O-])O)c4cccnc4c3O)ccc2c1,126
15,COC(=O)Nc1nc2cc(C(=O)c3ccc(F)cc3)ccc2[nH]1,88
16,N=C(N)Nc1ccc(C(=O)Oc2ccc3cc(C(=N)N)ccc3c2)cc1,86.1
17,O=C(O)COCCN1CCN(C(c2ccccc2)c2ccc(Cl)cc2)CC1 (stereo not drawn),117
18,COc1ccc2[nH]c([S+]([O-])Cc3ncc(C)c(OC)c3C)nc2c1 (stereo not drawn),88.8
19,CC(O)(C#Cc1ccc2c(c1)N(c1nc(N)ncc1Cl)CC2)c1nccs1 (stereo not drawn),86.5
20,COC1CCC(C(=O)c2ccc3nc4c(cc3c2)CCCO4)CC1 (stereo not drawn),89.8
21,O=C1NC(=O)/C(=C/c2cccc(C(F)(F)F)c2)S1,106
22,CC(O)C1C2C(C)\C(=C(/N2C1=O)C(O)=O)SC3CNC(C3)C(=O)N(C)C (stereo not drawn),115
